Experimental data taken from patent US7786299B2, “Methods for treating diseases or conditions using dihydropteridinone compounds” (Boehringer Ingelheim Pharma GmbH & Co. KG, priority 2003, dated 2010).

Columns and labels:
HeLaS3 cells = experiment: Measurement of cytotoxicity on cultivated human tumour cells (AlamarBlue); format: cell-based; conditions: HeLa in Table 1; unit inferred
Protocol: The activity of the compounds according to the invention was determined in the cytotoxicity test on cultivated human tumour cells and/or in a FACS analysis, for example on HeLaS3 cells.
Measurement of Cytotoxicity on Cultivated Human Tumour Cells
To measure the cytotoxicity on cultivated human tumour cells, cells of the cervical cancer tumour cell line HeLaS3 (obtained from American Type Culture Collection (ATCC)) in Ham's F12 Medium (Life Technologies) and 10% foetal calf serum (Life Technologies) were cultivated and harvested in the logarithmic growth phase. Then the HeLaS3 cells were placed in 96-well plates (Costar) at a density of 1000 cells per well and incubated overnight in an incubator (at 37° C. and 5% CO2), while on each plate 6 wells were filled only with medium (3 wells as a control of the medium, 3 wells for incubation with reduced AlamarBlue). The active substances were added to the cells in various concentrations (dissolved in DMSO; final concentration: 1%) (in each case as a triple measurement). After 72 hours' incubation, 20 μl of AlamarBlue (AccuMed International) were added to each well, and the cells were incubated for a further 7 hours. As a control, 20 μl of reduced Alamar Blue (AlamarBlue reagent which had been autoclaved for 30 min) were added to 3 wells. After 7 h incubation the colour change of the AlamarBlue reagent in the individual wells was determined in a Perkin Elmer fluorescence spectrophotometer (excitation 530 nm, emission 590 nm, slits 15, integrate time 0.1). The amount of AlamarBlue reagent reacted represents the metabolic activity of the cells. The relative cell activity was calculated as a percentage of the control (HeLa S3 cells without inhibitor) and the active substance concentration which inhibits the cell activity by 50% (IC^50) was obtained. The values were calculated from the average of three individual measurements, correcting for the control value (medium control).

H460-VINC = experiment: Cytotoxicity on H460-VINC cells (Table 1; method not given); format: cell-based; conditions: H460-VINC of Table 1; unit inferred

| SMILES | IC50 (HeLaS3 cells) [nM] | IC50 (H460-VINC) [nM] |
| --- | --- | --- |
| COc1cc(C(=O)NC2CCC(N3CCOCC3)CC2)ccc1Nc1ncc2c(n1)N(C(C)C)C(C)C(=O)N2C (stereo not shown) [Example 26] | 59 | 424 |
| CCC1C(=O)N(C)c2cnc(Nc3ccc(C(=O)NC4CCC(N5CCOCC5)CC4)cc3OC)nc2N1C(C)C (stereo not shown) [Example 27] | 14 | 164 |
| CCC1C(=O)N(C)c2cnc(Nc3ccc(C(=O)NC4CCC(N5CCOCC5)CC4)cc3OC)nc2N1C(C)C (stereo not shown) [Example 28] | 18 | 160 |
| COc1cc(C(=O)NC2CC(C)(C)N(C)C(C)(C)C2)ccc1Nc1ncc2c(n1)N(C1CCCC1)[C@H](C)C(=O)N2C [Example 30] | 12 | 574 |
| C[C@@H]1C(=O)N(C)c2cnc(Nc3ccc(C(=O)NC4CC(C)(C)N(C)C(C)(C)C4)cc3)nc2N1C1CCCC1 [Example 31] | 23 | ≥ 3000 |
| COc1cc(C(=O)NC2CC(C)(C)N(C)C(C)(C)C2)ccc1Nc1ncc2c(n1)N(C(C)C)[C@H](C)C(=O)N2C [Example 32] | 49 | ≥ 3000 |
| CC(C)N1c2nc(Nc3ccc(C(=O)NC4CC(C)(C)N(C)C(C)(C)C4)cc3)ncc2N(C)C(=O)[C@H]1C [Example 33] | 97 | ≥ 3000 |
| CCN1CC[C@@H](NC(=O)c2ccc(Nc3ncc4c(n3)N(CCC(C)C)[C@H](C)C(=O)N4C)c(OC)c2)C1 [Example 37] | 72 | 762 |
| COc1cc(C(=O)N[C@H]2CC[C@H](N3CCOCC3)CC2)ccc1Nc1ncc2c(n1)N(CCC(C)C)[C@H](C)C(=O)N2C [Example 38] | 87 | 278 |
| COc1cc(C(=O)N[C@H]2CC[C@H](N3CCOCC3)CC2)ccc1Nc1ncc2c(n1)N(C1CCCC1)[C@H](C)C(=O)N2C [Example 40] | 38 | 187 |
| COc1cc(C(=O)NC2CCN(C)CC2)ccc1Nc1ncc2c(n1)N(c1ccccc1)[C@H](C)C(=O)N2C [Example 41] | 83 | ≥ 3000 |
| COc1cc(C(=O)NC2CC3CCC(C2)N3C)ccc1Nc1ncc2c(n1)N(CCC(C)C)C(C)(C)C(=O)N2C (stereo not shown) [Example 43] | 94 | ≥ 3000 |
| CCC1C(=O)N(C)c2cnc(Nc3ccc(C(=O)NC4CCN(C)CC4)cc3)nc2N1C1CCCC1 (stereo not shown) [Example 44] | 9 | 204 |
| CCC1C(=O)N(C)c2cnc(Nc3ccc(C(=O)NC4CC5CCC(C4)N5C)cc3OC)nc2N1C1CCCC1 (stereo not shown) [Example 45] | 22 | 792 |
| CCC1C(=O)N(C)c2cnc(Nc3ccc(C(=O)NC4CCN(C)CC4)cc3OC)nc2N1C1CCCC1 (stereo not shown) [Example 46] | 12 | 208 |
| CC1C(=O)N(C)c2cnc(Nc3ccc(C(=O)NC4CCN(C)CC4)cc3)nc2N1c1ccccc1 (stereo not shown) [Example 48] | 83 | ≥ 3000 |
| COc1cc(C(=O)NC(C)(C)CN2CCCC2)ccc1Nc1ncc2c(n1)N(C1CCCC1)C(C)C(=O)N2C (stereo not shown) [Example 49] | 59 | 529 |
| COc1cc(C(=O)NC(C)(C)CN2CCCC2)ccc1Nc1ncc2c(n1)N(CC(C)(C)C)C(C)C(=O)N2C (stereo not shown) [Example 50] | 81 | 436 |
| COc1cc(C(=O)NCC(C)(C)CN(C)C)ccc1Nc1ncc2c(n1)N(C1CCCC1)C(C1CC1)C(=O)N2C (stereo not shown) [Example 51] | 80 | 150 |
| COc1cc(C(=O)NCC(C)(C)CN(C)C)ccc1Nc1ncc2c(n1)N(CC(C)(C)C)C(C)C(=O)N2C (stereo not shown) [Example 52] | 79 | 153 |
| COc1cc(C(=O)NCC(C)(C)CN(C)C)ccc1Nc1ncc2c(n1)N(CCC(C)C)C(C)(C)C(=O)N2C [Example 53] | 76 | 245 |
| CCC1C(=O)N(C)c2cnc(Nc3ccc(C(=O)NC(C)(C)CN4CCCC4)cc3OC)nc2N1C(C)C (stereo not shown) [Example 54] | 31 | 226 |
| CCC1C(=O)N(C)c2cnc(Nc3ccc(C(=O)NC(C)(C)CN4CCCC4)cc3OC)nc2N1C1CCCC1 (stereo not shown) [Example 55] | 13 | 86 |
